The text below walks through data of publication PMC3673896, “3,4-dihydroxyphenyl acetic acid and (+)-epoxydon isolated from marine algae-derived microorganisms induce down regulation of epidermal growth factor activated mitogenic signaling cascade in Hela cells” (Cancer Cell International, 2013).

The target of the test is EGF receptor tyrosine kinase (EGFR) (Homo sapiens, UniProt P00533). Description: AlphaScreen P-Tyr-100 kinase assay with poly[Glu:Tyr] ([…]) substrate. Format: biochemical.
Sequence of EGF receptor tyrosine kinase (EGFR) (P00533 669-1210 limits assumed): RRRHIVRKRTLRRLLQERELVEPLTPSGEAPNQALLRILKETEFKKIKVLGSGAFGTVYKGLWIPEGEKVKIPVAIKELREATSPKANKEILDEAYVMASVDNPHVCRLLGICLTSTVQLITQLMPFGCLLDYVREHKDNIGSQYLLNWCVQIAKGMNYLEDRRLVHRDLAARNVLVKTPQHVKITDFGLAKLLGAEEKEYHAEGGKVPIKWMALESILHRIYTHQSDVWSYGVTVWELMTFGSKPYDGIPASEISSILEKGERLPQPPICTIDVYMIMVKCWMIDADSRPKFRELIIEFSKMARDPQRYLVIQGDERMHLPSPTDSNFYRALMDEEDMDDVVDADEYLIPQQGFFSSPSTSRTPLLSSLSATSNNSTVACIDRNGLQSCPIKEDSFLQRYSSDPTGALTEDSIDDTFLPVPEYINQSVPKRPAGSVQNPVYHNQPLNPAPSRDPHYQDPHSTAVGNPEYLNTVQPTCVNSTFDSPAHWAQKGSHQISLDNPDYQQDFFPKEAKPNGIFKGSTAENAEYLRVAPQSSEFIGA

In turn, `O=C1C(CO)=C[C@@H](O)[C@H]2O[C@@H]12` [(+)-epoxydon] had an IC50 of 3.84 µM.
With `O=C(O)Cc1ccc(O)c(O)c1` [3,4-dihydroxyphenyl acetic acid] the figure was 16.7 µM.
